One experiment has as its system OGD-injuried neurons (primary cortical neurons). The experiment is described as follows: Cell viability assay: LDH release by OGD-injured primary cortical neurons. The note with it: Mus musculus, Primary cortical neuron; drug concentration 10^−6 M/L; OGD 2 hours, LDH after 8 hours. The experiment is classed as cell-based, mice. As for the experimental part:
After primary neurons were cultured for 9 days, the medium was replaced by DMEM high glucose medium containing 1% FBS, serum-starved overnight and then washed twice with OGD culture solution. This OGD culture solution contains DMEM medium, 1% FBS, 1% penicillin/streptomycin and B27, and contains no sugar. Then, the primary neurons were incubated with the test drugs for 30 minutes, OGD culture solution was added into an anaerobic tank and oxygen-deprived for 2 hours. The OGD culture solution was discarded, and replaced by oxygen-saturated DMEM medium containing 1% FBS, 1% penicillin/streptomycin and B27. After 8 hours the culture solution was collected to measure LDH level.
After the primary cortical neurons were treated with various processes, neuronal culture solution in six-well plates was pipetted to a 1.5 mL plastic centrifuge tube; cells were washed three times with PBS solution and each well was added PBS 1000 μl. The cells were freezed and thawed repeated for three times, centrifuged at 12000′ g for 5 minutes at 4° C., and the supernatant was removed for use. The activity of LDH enzyme was determined with 50 μl culture solution and 25 μl supernatant using lactate dehydrogenase kit.
Protective Effects of the Objective Compounds Against Primary Cortical Neuronal Injury Cultured In Vitro (See Table 2)
As a reminder, the inhibition is the drop in the measured response relative to a control, in per cent. In turn, `CC1(C)C2CCC1(C)C(OC(=O)c1cc(NCc3cc(F)cc(Cl)c3O)ccc1O)C2` (stereo not drawn) [ZL006-56, bornyl-2-hydroxy-5-(2-hydroxy-3-chloro-5-fluorobenzyl)aminobenzoate] showed an inhibition at 1 µM of 50%.
In turn, `CCCC(=O)Oc1cc(NCc2cc(Br)cc(Cl)c2O)ccc1C(=O)OC1CC2CCC1(C)C2(C)C` (stereo not drawn) [ZL006-44, bornyl-2-butyryloxy-4-(2-hydroxy-3-chloro-5-bromobenzyl)aminobenzoate] showed an inhibition at 1 µM of 43.5%.
On the same count and under the same terms, with `COc1c(C(=O)OC2CC3CCC2(C)C3(C)C)ccc(NCc2cc(Cl)cc(Cl)c2O)c1Cl` (stereo not drawn) [ZL006-26, bornyl-2-methoxy-3-chloro-4-(2-hydroxy-3,5-dichlorobenzyl)aminobenzoate] the figure was 35.4%; with `CC(=O)Oc1c(Cl)cc(C(F)(F)F)cc1CNc1ccc(C(=O)OC2CC3CCC2(C)C3(C)C)c(O)c1` (stereo not drawn) [ZL006-80, bornyl-2-hydroxy-4-(2-acetyloxy-3-chloro-5-trifluoromethylbenzyl)aminobenzoate], 41.1%; with `CC1(C)C2CCC1(C)C(OC(=O)c1cc(NCc3cc(C(F)(F)F)cc(Cl)c3O)ccc1O)C2` (stereo not drawn) [ZL006-48, bornyl-2-hydroxy-5-(2-hydroxy-3-chloro-5-trifluoromethylbenzyl)aminobenzoate], 21.1%.
The same measure, in the same setting: the same measure for `CCCC(=O)Oc1cc(NCc2cc(F)cc(Cl)c2O)ccc1C(=O)OC1CC2CCC1(C)C2(C)C` (stereo not drawn) [ZL006-60, bornyl-2-butyryloxy-4-(2-hydroxy-3-chloro-5-fluorobenzyl)aminobenzoate]: 68.4%.
Still for that read-out and setting: with `CC(=O)Oc1cc(NCc2cc(C(F)(F)F)cc(Cl)c2O)ccc1C(=O)OC1CC2CCC1(C)C2(C)C` (stereo not drawn) [ZL006-51, bornyl-2-acetyloxy-4-(2-hydroxy-3-chloro-5-trifluoromethylbenzyl)aminobenzoate] the figure was 66.3%; with `CC(=O)Oc1cc(NCc2cc(C(F)(F)F)ccc2O)ccc1C(=O)OC1CC2CCC1(C)C2(C)C` (stereo not drawn) [ZL006-74, bornyl-2-acetyloxy-4-(2-hydroxy-5-trifluoromethylbenzyl)aminobenzoate], 24.7%; with `CCCC(=O)Oc1cc(NCc2cc(C(F)(F)F)cc(Cl)c2O)ccc1C(=O)OC1CC2CCC1(C)C2(C)C` (stereo not drawn) [ZL006-52, bornyl-2-butyryloxy-4-(2-hydroxy-3-chloro-5-trifluoromethylbenzyl)aminobenzoate], 40.5%.

Staying with this experiment, now noted: drug concentration 10^−6 M/L; OGD 2 hours, LDH after 8 hours.
For the compound `CN(Cc1cc(Cl)cc(Cl)c1O)c1ccc(C(=O)O)c(O)c1` [ZL006-09, 2-hydroxy-4-[N-(2-hydroxy-3,5-dichlorobenzyl)-N-methyl]aminobenzoic acid], the “Inhibition of LDH release (%)” value is recorded as 29.5%.
In the case of `CN(Cc1cc(C(F)(F)F)cc(Cl)c1O)c1ccc(C(=O)OC2CC3CCC2(C)C3(C)C)c(O)c1` (stereo not drawn) [ZL006-53, bornyl-2-hydroxy-4-[N-(2-hydroxy-3-chloro-5-trifluoromethylbenzyl)-N-methyl]aminobenzoate], the “Inhibition of LDH release (%)” value was determined as 61.1%.
On the same count and under the same terms, the same measure for `CCCCCC(=O)Oc1cc(NCc2cc(Cl)cc(Cl)c2O)ccc1C(=O)OC1CC2CCC1(C)C2(C)C` (stereo not drawn) [ZL006-24, bornyl-2-hexanoyloxy-4-(2-hydroxy-3,5-dichlorobenzyl) aminobenzoate]: 31.2%; for `COc1cc(N(C)Cc2cc(Cl)cc(Cl)c2O)ccc1C(=O)OC1CC2CCC1(C)C2(C)C` (stereo not drawn) [ZL006-29, bornyl-2-methoxy-4-[N-(2-hydroxy-3,5-dichlorobenzyl)-N-methyl]aminobenzoate]: 41.7%.
The same measure, in the same setting: the same measure for `CC(=O)N(Cc1cc(F)cc(Cl)c1O)c1ccc(C(=O)OC2CC3CCC2(C)C3(C)C)c(O)c1` (stereo not drawn) [ZL006-62, bornyl-2-hydroxy-4-[N-(2-hydroxy-3-chloro-5-fluorobenzyl)-N-acetyl]aminobenzoate]: 50.1%.
Consider `CC1(C)C2CCC1(C)C(OC(=O)c1ccc(NCc3cc(F)cc(Cl)c3O)cc1O)C2` (stereo not drawn) [ZL006-55, bornyl-2-hydroxy-4-(2-hydroxy-3-chloro-5-fluorobenzyl) aminobenzoate], for which the “Inhibition of LDH release (%)” value is 36.3%.
The same measure, in the same setting: the same measure for `CC1(C)C2CCC1(C)C(OC(=O)c1cc(NCc3cc(Br)cc(Cl)c3O)ccc1O)C2` (stereo not drawn) [ZL006-40, bornyl-2-hydroxy-5-(2-hydroxy-3-chloro-5-bromobenzyl) aminobenzoate]: 41.8%; for `COc1cc(NCc2cc(F)ccc2O)ccc1C(=O)OC1CC2CCC1(C)C2(C)C` (stereo not drawn) [ZL006-70, bornyl-2-methoxy-4-(2-hydroxy-5-fluorobenzyl) aminobenzoate]: 2.4%; for `CC(Nc1ccc(C(=O)O)c(O)c1)c1cc(Cl)ccc1O` (stereo not drawn) [ZL006-14, 2-hydroxy-4-[1-(2-hydroxy-5-chlorophenyl)]-ethylaminobenzoic acid]: 19.9%.
Same read-out and setting: with “methyl 2-(bornyl-2-carbonylethoxy)-4-[N-(2-hydroxy-3,5-dichlorobenzyl)-N-acetyl]aminobenzoate [ZL006-35]” the figure was 12.8%; with `COc1cc(NCc2cc(Cl)cc(Cl)c2O)ccc1C(=O)OC1CC2CCC1(C)C2(C)C` (stereo not drawn) [ZL006-20, bornyl-2-methoxy-4-(2-hydroxy-3,5-dichlorobenzyl) aminobenzoate], 11.1%.
The same measure, in the same setting: the same measure for `COc1c(Cl)cc(Cl)cc1CNc1ccc(C(=O)OC2CC3CCC2(C)C3(C)C)c(O)c1` (stereo not drawn) [ZL006-75, bornyl-2-hydroxy-4-(2-methoxy-3,5-dichlorobenzyl) aminobenzoate]: 31.3%; for `COc1cc(NCc2cc(Cl)cc(Cl)c2O)c(Cl)cc1C(=O)OC1CC2CCC1(C)C2(C)C` (stereo not drawn) [ZL006-25, bornyl-2-methoxy-4-(2-hydroxy-3,5-dichlorobenzyl) amino-5-chlorobenzoate]: 30.6%; for `CC1(C)C2CCC1(C)C(OC(=O)c1ccc(NCc3cc(Br)cc(Cl)c3O)cc1O)C2` (stereo not drawn) [ZL006-39, bornyl-2-hydroxy-4-(2-hydroxy-3-chloro-5-bromobenzyl) aminobenzoate]: 81.2%.
With `CC1(C)C2CCC1(C)C(OC(=O)c1ccc(NCc3cc(C(F)(F)F)ccc3O)cc1O)C2` (stereo not drawn) [ZL006-72, bornyl-2-hydroxy-4-(2-hydroxy-5-trifluoromethylbenzyl) aminobenzoate], the “Inhibition of LDH release (%)” value is on record as 21.6%.
In the case of `COC(=O)c1ccc(N(Cc2cc(C(F)(F)F)cc(Cl)c2O)C(C)=O)cc1OC(C)=O` [ZL006-83, methyl 2-acetyloxy-4-[N-(2-hydroxy-3-chloro-5-trifluoromethylbenzyl)-N-acetyl]aminobenzoate], the “Inhibition of LDH release (%)” value turned out to be 33.2%.
Same read-out and setting: the same measure for `CC(=O)Oc1ccc(NCc2cc(Cl)cc(Cl)c2O)cc1C(=O)OC1CC2CCC1(C)C2(C)C` (stereo not drawn) [ZL006-02, bornyl-2-acetyloxy-5-(2-hydroxy-3,5-dichlorobenzyl) aminobenzoate]: 21.4%; for “bornyl-2-(2-ethoxy-2-carbonylethoxy)-4-[N-(2-hydroxy-3,5-dichlorobenzyl)-N-(2-ethoxy-2-carbonylethyl)]aminobenzoate [ZL006-36]”: 10.4%.
The same measure, in the same setting: with `CC1(C)C2CCC1(C)C(OC(=O)c1ccc(NCc3cc(Cl)ccc3O)cc1O)C2` (stereo not drawn) [ZL006-66, bornyl-2-hydroxy-4-(2-hydroxy-5-chlorobenzyl) aminobenzoate] the figure was 13.3%; with `CC1(C)C2CCC1(C)C(OC(=O)c1cc(NCc3cc(Br)ccc3O)ccc1O)C2` (stereo not drawn) [ZL006-04, bornyl-2-hydroxy-5-(2-hydroxy-5-bromobenzyl) aminobenzoate], 26.9%.
The same measure, in the same setting: with `CN(Cc1cc(Cl)cc(Cl)c1O)c1ccc(O)c(C(=O)O)c1` [ZL006-12, 2-hydroxy-5-[N-(2-hydroxy-3,5-dichlorobenzyl)-N-methyl]aminobenzoic acid] the figure was 15.1%; with `COc1cc(NCc2cc(Br)ccc2O)ccc1C(=O)OC1CC2CCC1(C)C2(C)C` (stereo not drawn) [ZL006-64, bornyl-2-methoxy-4-(2-hydroxy-5-bromobenzyl) aminobenzoate], 25.4%.
As to `CC(=O)Oc1cc(N(Cc2cc(Cl)cc(Cl)c2O)C(C)=O)ccc1C(=O)O` [ZL006-10, 2-acetyloxy-4-[N-(2-hydroxy-3,5-dichlorobenzyl)-N-acetyl]aminobenzoic acid], the “Inhibition of LDH release (%)” value came to 42.3%.
Still for that read-out and setting: with `CN(Cc1cc(Cl)cc(Cl)c1O)c1ccc(C(=O)OC2CC3CCC2(C)C3(C)C)c(O)c1` (stereo not drawn) [ZL006-27, bornyl-2-hydroxy-4-[N-(2-hydroxy-3,5-dichlorobenzyl)-N-methyl]aminobenzoate] the figure was 25.3%; with “bornyl-2-(bornyl-2-carbonylethoxy)-4-[N-(2-hydroxy-3,5-dichlorobenzyl)-N-(bornyl-2-carbonylethyl)]aminobenzoate [ZL006-37]”, 40.2%; with `CC(=O)Oc1c(Cl)cc(Br)cc1CNc1ccc(C(=O)OC2CC3CCC2(C)C3(C)C)c(O)c1` (stereo not drawn) [ZL006-78, bornyl-2-hydroxy-4-(2-acetyloxy-3-chloro-5-bromobenzyl) aminobenzoate], 70.6%.
On the same count and under the same terms, the same measure for `COC(=O)c1cc(N(C)Cc2cc(F)cc(Cl)c2O)ccc1O` [ZL006-11, methyl 2-hydroxy-5-[N-(2-hydroxy-3-chloro-5-fluorobenzyl)-N-methyl]aminobenzoate]: 41.1%.

The values above are taken from US9481636B2, “N-benzylaniline derivative and uses thereof” (Nanjing Medical University, priority 2011, dated 2016).
